In US10106828B2, “Cell culture medium and process for protein expression, said medium and process comprising a PAM inhibitor” (SANDOZ GMBH, priority 2010, dated 2018):

Legend:
CHO cells [1] = assay: Influence of PAM inhibitors on proline amide formation on a monoclonal antibody (chimeric IgG) expressed in CHO cells, CEX-CPB analysis / peptide mapping; assay type: cell-based, Chinese hamster; settings: FIG. 1; for amount of pseudo 1K (proline amide) in CEX-CPB: monoclonal antibody (chimeric IgG), control without inhibitor app. 10%
Text: The amount of proline amide can be identified and quantified by various analytical methods, by distinguishing the amidated variant from the non-amidated one by physico-chemical differences such as charge, hydrophobicity or mass. The most common method is ion exchange chromatography, as the CEX-CPB method (cation exchange chromatography after digestion by carboxypeptidase B), exploiting the charge alteration due to proline amidation.
(§1) For antibodies, co-elution of proline amide variants with lysine variants is avoided by removal of lysine residues using carboxypeptidase B digestion prior to chromatographic separation. Additional co-elution with other basic variants, however, can result in a quantification background of several percent (e.g. 4%). Proline amide variants plus background are termed “Pseudo 1K” for eluting at the chromatographic position of the antibody variant with one C-terminal lysine residue. “Pseudo 2K” encompasses the proline variants plus background eluting at the chromatographic position of the antibody variant with two C-terminal lysine residue. The difference to the CEX method (i.e. CEX without lysine removal by CPB digestion) is indicating the amount of antibody variants with lysine residues, termed “Real 1K” and “Real 2K”. The quantification by CEX(-CPB) returns the percentage of proline amidated antibodies relative to all antibody molecules in a solution. An analytical test method which unambiguously can identify and quantify amidated proline variants is RP-HPLC (reversed-phase high-performance-liquid-chromatography) of endopeptidase (e.g. LysC, Trypsin) digested protein, so called peptide mapping, using UV (ultraviolet) or MS (mass-spec) detection. The quantification by RP-HPLC peptide mapping returns for an antibody the percentage of proline amidated heavy chains relative to all heavy chains.
“Pseudo 1K” is the variant determined by CEX-CPB where one of the two heavy chains of an antibody (IgG) has a proline amide at its C-terminus. “Pseudo 2K” is the variant determined by CEX-CPB where both heavy chains of a monoclonal antibody have a proline amide at their C-termini.
In their experiments, the inventors focused on published PAM inhibitors as potential medium components. Among the screened components are, i.e., sodium sulfite, tiopronin, captopril, EDTA, ammonium sulfite, L-histidine, D-histidine, ammonium meta thiomolybdate, L-carnosine, penicillamine, 4-phenyl-3 butenoic acid (PBA). […]
FIG. 1: Influence of PAM inhibitors on proline amide (PA) formation, quantified as ‘pseudo 1K’ in CEX-CPB analysis, on a monoclonal antibody (chimeric IgG) expressed in CHO cells. […]

CHO cells [2] = assay: Influence of PBA on proline amide formation on an Fc-fusion protein expressed in CHO cells, quantified by peptide mapping; assay type: cell-based, Chinese hamster; settings: for proline amide (% per heavy chain): without PBA >4%
Text: as §1
Two recombinant proteins were used to investigate the effect of PAM inhibitors on amino acid amidation/proline amid formation, i.e., a monoclonal antibody (human-mouse-chimeric IgG), and an Fc-fusion protein. CHO cells were used as expression system.
FIG. 2: Influence of PAM inhibitor PBA on proline amide formation on an Fc-fusion protein expressed in CHO cells, as quantified by peptide mapping. Supplementing the cultures of recombinant CHO cells with various concentrations of PBA up to 100 μM decreased the amount of proline amide (% per heavy chain) in a dose-dependent effect curve from app. 2% (no PBA) to app. 0.1% (100 μM PBA).
FIG. 3: Influence of PAM inhibitor PBA on proline amide formation on an Fc-fusion protein expressed in CHO cells, as quantified by peptide mapping.

O=C(O)CC=Cc1ccccc1 [PBA, 4-phenyl-3-butenoic acid]
amount of pseudo 1K (proline amide) in CEX-CPB (CHO cells [1]; 10 μM in cell culture medium): ~8%
amount of pseudo 1K (proline amide) in CEX-CPB (CHO cells [1]; 100 μM in cell culture medium): ~5%
proline amide per heavy chain, peptide mapping (CHO cells [1]; corresponds to 5% pseudo 1K in CEX-CPB (100 μM), monoclonal antibody): 0-2%
effect on proline amide formation compared with other screened PAM inhibitors (CHO cells [1]; supplemented to the cell culture): strongest effect
amount of proline amide (% per heavy chain) (CHO cells [2]; FIG. 2, 100 μM PBA, no PBA app. 2%): ~0.1%
effect curve of proline amide decrease (CHO cells [2]; FIG. 2, various concentrations up to 100 μM): dose-dependent
proline amide (% per heavy chain) (CHO cells [2]; FIG. 3, 50 μM PBA): < 1%
proline amide (% per heavy chain) (CHO cells [2]; FIG. 3, 100 μM PBA): < 0.5%
